The source of these data is ChEMBL document CHEMBL1909046, “DrugMatrix in vitro pharmacology data”.

Data set [1] concerns the target T1, Nitric oxide synthase, inducible (Mus musculus, UniProt P29477).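 Note: inhibition of iNOS enzyme activity measured with L-arginine as substrate.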
T1 sequence (P29477 whole entry): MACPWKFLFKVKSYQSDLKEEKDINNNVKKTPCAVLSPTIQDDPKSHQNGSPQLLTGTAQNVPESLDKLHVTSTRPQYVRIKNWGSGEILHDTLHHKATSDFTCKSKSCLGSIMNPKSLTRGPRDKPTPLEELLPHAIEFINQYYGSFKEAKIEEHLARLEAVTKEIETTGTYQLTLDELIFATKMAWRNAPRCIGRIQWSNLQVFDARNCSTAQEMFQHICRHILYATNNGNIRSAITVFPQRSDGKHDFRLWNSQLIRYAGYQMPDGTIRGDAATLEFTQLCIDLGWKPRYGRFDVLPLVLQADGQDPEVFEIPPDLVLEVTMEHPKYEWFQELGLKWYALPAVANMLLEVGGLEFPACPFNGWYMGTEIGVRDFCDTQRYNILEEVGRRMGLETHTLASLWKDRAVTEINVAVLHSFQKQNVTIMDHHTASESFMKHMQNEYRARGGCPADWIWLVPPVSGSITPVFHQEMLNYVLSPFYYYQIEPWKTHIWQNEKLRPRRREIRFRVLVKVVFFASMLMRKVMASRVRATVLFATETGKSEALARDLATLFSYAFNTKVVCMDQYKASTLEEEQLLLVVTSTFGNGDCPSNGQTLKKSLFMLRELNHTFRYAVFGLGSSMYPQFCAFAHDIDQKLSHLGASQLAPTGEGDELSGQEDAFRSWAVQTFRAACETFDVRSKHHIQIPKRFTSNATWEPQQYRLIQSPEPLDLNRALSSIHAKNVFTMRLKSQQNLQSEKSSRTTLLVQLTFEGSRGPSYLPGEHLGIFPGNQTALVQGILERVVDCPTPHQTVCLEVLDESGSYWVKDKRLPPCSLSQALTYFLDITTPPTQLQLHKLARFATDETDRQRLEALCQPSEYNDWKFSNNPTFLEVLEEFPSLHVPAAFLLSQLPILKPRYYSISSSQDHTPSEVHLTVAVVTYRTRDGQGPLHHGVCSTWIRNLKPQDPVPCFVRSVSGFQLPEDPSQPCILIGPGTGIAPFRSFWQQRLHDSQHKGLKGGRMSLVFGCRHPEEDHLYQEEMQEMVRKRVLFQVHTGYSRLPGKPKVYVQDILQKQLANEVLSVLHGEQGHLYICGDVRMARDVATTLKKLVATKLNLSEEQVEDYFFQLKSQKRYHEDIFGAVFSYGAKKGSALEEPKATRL
Also noted: species or system Escherichia coli.

The target in the next data set is Cytochrome P450 3A4 (Homo sapiens, UniProt P08684). As to conditions: bti-tn-5b1-4.
Another data set addresses T2, Cytochrome P450 1A2 (Homo sapiens, UniProt P05177).
T2 sequence (P05177 whole entry): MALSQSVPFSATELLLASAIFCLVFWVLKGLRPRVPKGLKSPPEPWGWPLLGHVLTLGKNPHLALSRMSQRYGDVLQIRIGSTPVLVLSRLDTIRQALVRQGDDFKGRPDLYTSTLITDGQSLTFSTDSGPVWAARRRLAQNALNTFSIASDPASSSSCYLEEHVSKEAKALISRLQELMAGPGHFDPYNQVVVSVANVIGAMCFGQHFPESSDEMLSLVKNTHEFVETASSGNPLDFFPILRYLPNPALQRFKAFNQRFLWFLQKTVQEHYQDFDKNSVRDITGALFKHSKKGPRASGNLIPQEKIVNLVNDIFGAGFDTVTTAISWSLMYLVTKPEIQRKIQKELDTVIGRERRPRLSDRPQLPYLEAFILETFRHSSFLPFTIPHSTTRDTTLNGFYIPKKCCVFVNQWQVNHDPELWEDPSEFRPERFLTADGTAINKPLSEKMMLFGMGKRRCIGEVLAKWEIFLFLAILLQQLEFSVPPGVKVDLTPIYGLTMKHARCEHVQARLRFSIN
As to conditions: bti-tn-5b1-4.

For data set [2], the target named is T3, Muscarinic acetylcholine receptor M4 (Homo sapiens, UniProt P08173).
T3 sequence (P08173 whole entry): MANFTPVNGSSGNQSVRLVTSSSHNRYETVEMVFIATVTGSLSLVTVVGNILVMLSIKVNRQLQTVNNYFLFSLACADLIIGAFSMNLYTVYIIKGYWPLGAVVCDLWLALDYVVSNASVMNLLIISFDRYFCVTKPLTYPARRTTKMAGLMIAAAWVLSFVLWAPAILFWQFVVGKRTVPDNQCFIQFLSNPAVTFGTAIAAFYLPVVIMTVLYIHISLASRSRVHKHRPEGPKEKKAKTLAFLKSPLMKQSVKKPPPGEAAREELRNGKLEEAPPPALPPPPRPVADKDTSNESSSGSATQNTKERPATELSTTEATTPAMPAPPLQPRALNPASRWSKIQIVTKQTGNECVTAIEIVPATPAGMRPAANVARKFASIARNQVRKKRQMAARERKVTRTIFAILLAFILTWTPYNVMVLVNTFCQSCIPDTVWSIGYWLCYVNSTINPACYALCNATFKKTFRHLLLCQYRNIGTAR
The data set is classed as cell membranes, CHO-K1, Membrane.

In the next data set the target is Estrogen receptor beta (Homo sapiens, UniProt Q92731). To be noted: sf9.
The target of data set [3] is T4, Neuropeptide Y receptor type 1 (Homo sapiens, UniProt P25929).
T4 sequence (P25929 whole entry): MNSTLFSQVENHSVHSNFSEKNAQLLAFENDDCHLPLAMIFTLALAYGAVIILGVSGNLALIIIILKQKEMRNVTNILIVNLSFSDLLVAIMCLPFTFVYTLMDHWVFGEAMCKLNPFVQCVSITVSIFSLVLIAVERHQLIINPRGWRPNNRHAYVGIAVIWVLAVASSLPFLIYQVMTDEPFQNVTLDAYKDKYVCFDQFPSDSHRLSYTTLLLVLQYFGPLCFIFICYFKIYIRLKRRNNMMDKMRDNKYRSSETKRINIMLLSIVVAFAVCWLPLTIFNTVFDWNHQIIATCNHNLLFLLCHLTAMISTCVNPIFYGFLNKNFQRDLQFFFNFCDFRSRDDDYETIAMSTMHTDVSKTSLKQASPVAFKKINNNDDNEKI
The data set is classed as cell membranes, Membrane. To be noted: sk-n-mc.
Note: in other assays of this panel Not Active means under 50% inhibition at 10 µM.

Sequence of Estrogen receptor beta (Q92731 whole entry): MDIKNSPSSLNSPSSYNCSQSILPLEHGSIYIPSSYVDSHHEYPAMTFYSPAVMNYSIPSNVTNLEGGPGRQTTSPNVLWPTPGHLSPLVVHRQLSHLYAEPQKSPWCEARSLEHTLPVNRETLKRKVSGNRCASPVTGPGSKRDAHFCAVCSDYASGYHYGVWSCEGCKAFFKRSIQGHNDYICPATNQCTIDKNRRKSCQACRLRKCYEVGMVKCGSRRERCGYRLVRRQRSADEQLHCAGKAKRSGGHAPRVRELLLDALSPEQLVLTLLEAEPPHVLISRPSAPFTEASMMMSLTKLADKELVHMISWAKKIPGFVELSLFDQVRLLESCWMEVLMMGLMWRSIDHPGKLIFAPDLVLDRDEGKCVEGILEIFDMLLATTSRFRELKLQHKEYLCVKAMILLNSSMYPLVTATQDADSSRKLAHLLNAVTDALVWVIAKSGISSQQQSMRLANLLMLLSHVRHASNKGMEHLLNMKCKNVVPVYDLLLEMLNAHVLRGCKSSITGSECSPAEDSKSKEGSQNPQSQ
Sequence of Cytochrome P450 3A4 (P08684 whole entry): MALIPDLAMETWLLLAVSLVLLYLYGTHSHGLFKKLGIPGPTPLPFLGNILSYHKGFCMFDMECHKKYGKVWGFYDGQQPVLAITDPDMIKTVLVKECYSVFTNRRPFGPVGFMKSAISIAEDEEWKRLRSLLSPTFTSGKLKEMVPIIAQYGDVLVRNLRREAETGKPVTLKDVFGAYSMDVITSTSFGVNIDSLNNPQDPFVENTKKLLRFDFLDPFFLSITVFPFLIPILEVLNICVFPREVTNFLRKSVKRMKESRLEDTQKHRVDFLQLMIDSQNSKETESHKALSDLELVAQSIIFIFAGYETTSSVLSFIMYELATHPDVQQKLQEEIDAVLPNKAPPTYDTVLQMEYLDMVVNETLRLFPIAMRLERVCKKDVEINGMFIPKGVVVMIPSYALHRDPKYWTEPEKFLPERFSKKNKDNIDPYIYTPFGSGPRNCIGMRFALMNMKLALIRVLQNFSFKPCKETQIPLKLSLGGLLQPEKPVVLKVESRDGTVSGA

In the case of `O=C(O)CCCc1cccs1`, the IC50 entry (in data set [1]; on Cytochrome P450 3A4; on Cytochrome P450 1A2; in data set [2] (cho-k1); against Estrogen receptor beta; in data set [3]) was “Not Active” throughout. Also, the Ki entry at Cytochrome P450 3A4 and on Cytochrome P450 1A2 was “Not Active” in each case.
Turning to `O=C(c1ccccc1F)N1CCC(Cc2ccccc2)CC1`, the IC50 entry (in data set [1]; against Cytochrome P450 3A4; at Cytochrome P450 1A2; in data set [2] (cho-k1); against Estrogen receptor beta; in data set [3]) was “Not Active” each time. The Ki result at Cytochrome P450 3A4 and on Cytochrome P450 1A2 was “Not Active” in each case.
Consider `CC(O)COC[C@H]1O[C@@H]2O[C@H]3[C@H](O)[C@@H](O)[C@@H](O[C@H]4[C@H](O)[C@@H](O)[C@@H](O[C@H]5[C@H](O)[C@@H](O)[C@@H](O[C@H]6[C@H](O)[C@@H](O)[C@@H](O[C@H]7[C@H](O)[C@@H](O)[C@@H](O[C@H]8[C@H](O)[C@@H](O)[C@@H](O[C@H]1[C@H](O)[C@H]2O)O[C@@H]8COCC(C)O)O[C@@H]7COCC(C)O)O[C@@H]6COCC(C)O)O[C@@H]5COCC(C)O)O[C@@H]4COCC(C)O)O[C@@H]3COCC(C)O` (stereo partly drawn) [2-HYDROXYPROPYL-BETA-CYCLODEXTRIN], for which the IC50 entry (in data set [1]; against Cytochrome P450 3A4; at Cytochrome P450 1A2; in data set [2] (cho-k1); against Estrogen receptor beta; in data set [3]) was “Not Active” in each case. Moreover, the Ki entry at Cytochrome P450 3A4 and at Cytochrome P450 1A2 was “Not Active” each time.
On to `NC(=O)c1cccc(N)c1` [3-AMINOBENZAMIDE], for which the IC50 result (in data set [1]; against Cytochrome P450 3A4; against Cytochrome P450 1A2; in data set [2] (cho-k1); at Estrogen receptor beta; in data set [3]) was “Not Active” throughout. The Ki entry at Cytochrome P450 3A4 and on Cytochrome P450 1A2 was “Not Active” each time.
Consider `C[C@H]1O[C@H](O[C@H]2[C@H](O)[C@@H](O)[C@@H](O[C@H]3[C@H](O)[C@@H](O)C(O)O[C@@H]3CO)O[C@@H]2CO)[C@H](O)[C@@H](O)[C@@H]1N[C@H]1C=C(CO)[C@@H](O)[C@H](O)[C@H]1O` (stereo partly specified) [ACARBOSE], for which the IC50 entry (in data set [1]; against Cytochrome P450 3A4; against Cytochrome P450 1A2; in data set [2] (cho-k1); against Estrogen receptor beta; in data set [3]) was “Not Active” throughout. Besides, the Ki result on Cytochrome P450 3A4 and on Cytochrome P450 1A2 was “Not Active” each time.
Consider `CC[C@H]1[C@@H]2C[C@H]3[C@@H]4N(C)c5ccccc5[C@]45C[C@@H]([C@@H]2[C@H]5O)N3[C@@H]1O` [AJMALINE], for which the IC50 entry (in data set [1]; at Cytochrome P450 3A4; at Cytochrome P450 1A2; in data set [2] (cho-k1); at Estrogen receptor beta; in data set [3]) was “Not Active” throughout. Further, the Ki result at Cytochrome P450 3A4 and on Cytochrome P450 1A2 was “Not Active” in each case.
With `NCCCNCCSP(=O)(O)O` [AMIFOSTINE], the IC50 result (in data set [1]; against Cytochrome P450 3A4; at Cytochrome P450 1A2; in data set [2] (cho-k1); at Estrogen receptor beta; in data set [3]) was “Not Active” in each case. The Ki entry on Cytochrome P450 3A4 and on Cytochrome P450 1A2 was “Not Active” in each case.
In the case of `CN(C)CCC=C1c2ccccc2CCc2ccccc21` [AMITRIPTYLINE], the IC50 entry in data set [1] is “Not Active”; against Cytochrome P450 3A4, “Not Active”; against Cytochrome P450 1A2, “Not Active”; in data set [2] (read-out: IC50), 5.3 nM; against Estrogen receptor beta, “Not Active”; in data set [3] it was “Not Active”. For the same compound, the results for the Ki entry (on Cytochrome P450 3A4; on Cytochrome P450 1A2; in data set [2] (read-out: Ki)) were “Not Active”, “Not Active” and 0.739 nM, respectively.
Take `CC(=O)Oc1ccccc1C(=O)O` [ASPIRIN]: the IC50 result (in data set [1]; against Cytochrome P450 3A4; at Cytochrome P450 1A2; in data set [2] (cho-k1); at Estrogen receptor beta; in data set [3]) was “Not Active” throughout. For the same compound, the Ki entry at Cytochrome P450 3A4 and on Cytochrome P450 1A2 was “Not Active” each time.
Regarding `CC(=O)OC[C@H]1O[C@@H](n2ncc(=O)[nH]c2=O)[C@H](OC(C)=O)[C@@H]1OC(C)=O` [AZARIBINE], the IC50 result (in data set [1]; against Cytochrome P450 3A4; on Cytochrome P450 1A2; in data set [2] (cho-k1); on Estrogen receptor beta; in data set [3]) was “Not Active” in each case. For the same compound, the Ki result on Cytochrome P450 3A4 and on Cytochrome P450 1A2 was “Not Active” throughout.
As to `C[C@H]1[C@H](NC(=O)/C(=N\OC(C)(C)C(=O)O)c2csc(N)n2)C(=O)N1S(=O)(=O)O` [AZTREONAM], the IC50 entry (in data set [1]; against Cytochrome P450 3A4; against Cytochrome P450 1A2; in data set [2] (cho-k1); against Estrogen receptor beta; in data set [3]) was “Not Active” each time. The Ki entry on Cytochrome P450 3A4 and at Cytochrome P450 1A2 was “Not Active” throughout.
Turning to `CC(C)(C)NCC(O)COc1cccc2c1CC(O)C(O)C2` (stereo unspecified) [NADOLOL], the IC50 result (in data set [1]; on Cytochrome P450 3A4; in data set [2] (cho-k1); against Estrogen receptor beta; in data set [3]) was “Not Active” throughout. For the same compound, the Ki entry on Cytochrome P450 3A4 is “Not Active”.
For `C[C@@H]1O[C@@H](O[C@H]2C[C@@H](O)[C@]3(CO)[C@H]4[C@H](O)C[C@]5(C)[C@@H](C6=CC(=O)OC6)CC[C@]5(O)[C@@H]4CC[C@]3(O)C2)[C@H](O)[C@H](O)[C@H]1O` [OUABAIN], the IC50 entry (in data set [1]; against Cytochrome P450 3A4; in data set [2] (cho-k1); against Estrogen receptor beta; in data set [3]) was “Not Active” in each case. Besides, the Ki result at Cytochrome P450 3A4 is on record as “Not Active”.

As a reminder, the IC50 is the midpoint of a concentration-inhibition curve. Usually Ki stands for a dissociation constant, usually derived from enzyme kinetics or from competition with a known ligand.
